Assay results reported in patent US12583866B2, “Pyrido[2,3-b][1,4]oxazines or tetrahydropyrido[2,3-b][1,4]oxazepines as IAP antagonists” (BEIGENE, LTD., priority 2020, dated 2026).

Key:
[1] = target: T1, recombinant human cIAP2-BIR3 protein (Homo sapiens, UniProt Q13489); test: Recombinant human c-IAP2-BIR3 biochemical assay (HTRF, peptide displacement); conditions: 3.7 nM cIAP2-BIR3, 3.7 nM AbuRPF-K(5-Fam)-NH2 peptide, read-out: Protein binding IC50 (nM) c-IAP2
T1 construct: recombinant human cIAP2-BIR3 protein; purchased Reaction biology APT-11-372
Method in brief: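 HTRF peptide-displacement readout (ex337, em520/490 ratio) after sequential 1 h room-temperature steps: compound with 3.7 nM protein, then 3.7 nM 5-Fam-labelled AbuRPF peptide, then Tb-cryptate anti-6His antibody. Buffer pH 7.5 HEPES with NaCl, Tween-20, DTT; 10-point 4-fold dilutions from 10 uM; four-parameter logistic IC50.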

[2] = target: T2, recombinant human cIAP1-BIR3 protein (Homo sapiens, UniProt Q13490); test: Recombinant human c-IAP1-BIR3 biochemical assay (HTRF, peptide displacement); conditions: 1.2 nM cIAP1-BIR3, 3 nM AbuRPF-K(5-Fam)-NH2 peptide, read-out: Protein binding IC50 (nM) c-IAP1
T2 construct: recombinant human cIAP1-BIR3 protein; purchased Reaction biology APT-11-370
Method in brief: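 HTRF peptide displacement: after 1 h compound pre-incubation (max 10 uM, 4-fold dilutions, 10 points) with 1.2 nM protein in HEPES pH 7.5 buffer, 3 nM 5-Fam-labelled AbuRPF-K peptide and Tb-anti-6His were each added for 1 h at room temperature. Inhibition taken from 520/490 nm ratio, fitted four-parameter logistic for IC50.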

[3] = target: T3, recombinant human XIAP-BIR3 protein (Homo sapiens, UniProt P98170); test: Recombinant human XIAP-BIR3 biochemical assay (HTRF, peptide displacement); conditions: 3.7 nM XIAP-BIR3, 7.6 nM AbuRPF-K(5-Fam)-NH2 peptide, read-out: Protein binding IC50 (nM) XIAP
T3 construct: recombinant human XIAP-BIR3 protein; purchased Reaction biology APT-11-374
Method in brief: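 HTRF peptide displacement with 7.6 nM 5-Fam-labelled AbuRPF peptide, anti-6His Tb donor and 3.7 nM recombinant XIAP-BIR3. Protein and compound (10-point, 4-fold from 10 µM) were preincubated 1 h RT in HEPES pH 7.5 buffer before each addition, each 1 h. IC50 by four-parameter fit of the 520/490 nm ratio.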

T3 sequence (P98170 241-356 limits assumed): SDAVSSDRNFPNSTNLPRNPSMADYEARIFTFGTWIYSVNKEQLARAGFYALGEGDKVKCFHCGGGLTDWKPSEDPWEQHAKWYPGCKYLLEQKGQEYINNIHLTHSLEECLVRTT
T2 sequence (Q13490 253-363 limits assumed): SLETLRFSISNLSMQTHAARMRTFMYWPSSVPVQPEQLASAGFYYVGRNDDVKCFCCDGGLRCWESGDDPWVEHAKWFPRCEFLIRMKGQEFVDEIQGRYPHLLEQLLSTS
T1 sequence (Q13489 238-349 limits assumed): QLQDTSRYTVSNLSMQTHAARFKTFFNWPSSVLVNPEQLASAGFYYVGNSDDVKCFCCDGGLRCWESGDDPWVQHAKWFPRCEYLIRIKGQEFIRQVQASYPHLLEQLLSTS

| Structure (SMILES) | IC50 [1] | IC50 [2] | IC50 [3] |
| --- | --- | --- | --- |
| C[C@@H]1CN(CC(=O)N2c3cc(Cc4ccc(F)cc4)c(C(=O)NCCN4CCOCC4)nc3OC[C@@H]2C)C(CN2[C@H](C)COC[C@H]2C)CN1 (stereo partly drawn) [Example 75, (5)-1-(2-((2R,5R)-2-(((3R,5R)-3,5-dimethylmorpholino)methyl)-5-methylpiperazin-1-yl)acetyl)-7-(4-fluorobenzyl)-2-methyl-N-(2-morpholinoethyl)-2,3-dihydro-1H-pyrido[2,3-b][1,4]oxazine-6-carboxamide] | 0.54 nM | 0.2 nM | 6.5 nM |
| C[C@@H]1CN(CC(=O)N2c3cc(Cc4ccc(F)cc4)c(C(=O)N4CCC(F)(F)CC4)nc3OC[C@@H]2C)[C@@H](CN2[C@H](C)COC[C@H]2C)CN1 [Compound 103, 1-((S)-6-(4,4-difluoropiperidine-1-carbonyl)-7-(4-fluorobenzyl)-2-methyl-2,3-dihydro-1H-pyrido[2,3-b][1,4]oxazin-1-yl)-2-((2R,5R)-2-(((3R,5R)-3,5-dimethylmorpholino)methyl)-5-methylpiperazin-1-yl)ethan-1-one] | 0.43 nM | 0.24 nM | 5.1 nM |
| C[C@@H]1CN(CC(=O)N2c3cc(Cc4ccc(F)cc4)c(C(=O)N4CCCCC4)nc3OC[C@@H]2C)[C@@H](CN2[C@H](C)COC[C@H]2C)CN1 [Compound 102, 2-((2R,5R)-2-(((3R,5R)-3,5-dimethylmorpholino)methyl)-5-methylpiperazin-1-yl)-1-((S)-7-(4-fluorobenzyl)-2-methyl-6-(piperidine-1-carbonyl)-2,3-dihydro-1H-pyrido[2,3-b][1,4]oxazin-1-yl)ethan-1-one] | 0.49 nM | 0.24 nM | 5.7 nM |
| Cc1ccc([C@H]2COc3ncc(Cc4ccc(F)cc4)cc3N2C(=O)CN2C[C@@H](C)NC[C@@H]2CN2CCOC[C@H]2C)cc1 [Compound 30, 1-((S)-7-(4-fluorobenzyl)-2-(p-tolyl)-2,3-dihydro-1H-pyrido[2,3-b][1,4]oxazin-1-yl)-2-((2R,5R)-5-methyl-2-(((R)-3-methylmorpholino)methyl)piperazin-1-yl)ethan-1-one] | 0.72 nM | 0.35 nM | 7.3 nM |
| C[C@@H]1CN(CC(=O)N2CCCOc3ncc(Cc4ccc(F)cc4)cc32)[C@@H](CN2CCOC[C@H]2C)CN1 [Compound 18, 1-(8-(4-fluorobenzyl)-3,4-dihydropyrido[2,3-b][1,4]oxazepin-1(2H)-yl)-2-((2R,5R)-5-methyl-2-(((R)-3-methylmorpholino)methyl)piperazin-1-yl)ethan-1-one] | > 1000 nM | > 1000 nM | > 1000 nM |

The next compounds have a lower IC50 [1] than those just listed; values first:

| IC50 [1] | IC50 [2] | IC50 [3] | Structure (SMILES) |
| --- | --- | --- | --- |
| 0.36 nM | 0.25 nM | 5.8 nM | C[C@@H]1CN(CC(=O)N2c3cc(Cc4ccc(F)cc4)c(C(N)=O)nc3OC[C@@H]2C)[C@@H](CN2[C@H](C)COC[C@H]2C)CN1 [Compound 32, (S)-1-(2-((2R,5R)-2-(((3R,5R)-3,5-dimethylmorpholino)methyl)-5-methylpiperazin-1-yl)acetyl)-7-(4-fluorobenzyl)-2-methyl-2,3-dihydro-1H-pyrido[2,3-b][1,4]oxazine-6-carboxamide] |
| 0.14 nM | 0.09 nM | 8.2 nM | C[C@@H]1CN(CC(=O)N2c3cc(Cc4ccc(F)cc4)cnc3OC[C@@H]2COc2ccccc2)[C@@H](CN2[C@H](C)COC[C@H]2C)CN1 [Compound 40, 2-((2R,5R)-2-(((3R,5R)-3,5-dimethylmorpholino)methyl)-5-methylpiperazin-1-yl)-1-((S)-7-(4-fluorobenzyl)-2-(phenoxymethyl)-2,3-dihydro-1H-pyrido[2,3-b][1,4]oxazin-1-yl)ethan-1-one] |
| 0.27 nM | 0.23 nM | 23 nM | C[C@@H]1CN(CC(=O)N2c3cc(Cc4ccc(F)cc4)cnc3OC[C@@H]2C2CCCCC2)[C@@H](CN2[C@H](C)COC[C@H]2C)CN1 [Compound 43, 1-((S)-2-cyclohexyl-7-(4-fluorobenzyl)-2,3-dihydro-1H-pyrido[2,3-b][1,4]oxazin-1-yl)-2-((2R,5R)-2-(((3R,5R)-3,5-dimethylmorpholino)methyl)-5-methylpiperazin-1-yl)ethan-1-one] |
